Assay results taken from publication PMC7129073 (Clinical Microbiology and Infection, 2015).
≈ marks a conversion by molar mass, not a printed value.

Experiments:
Other Enterobacteriacae = experiment: Sensitivity of CAP pathogens with/without antibiotic pretreatment; assay type: cell-based, Enterobacteriaceae
P. aeruginosa = experiment: as above; assay type: cell-based, Pseudomonas aeruginosa; conditions: Abs. 3
N.gonorrhoeae = experiment: microbe, parasite or virus in culture; assay type: cell-based; conditions: Neisseria gonorrhoeae
H.influenzae = experiment: Broth microdilution; assay type: cell-based, Haemophilus influenzae; conditions: for MIC90: Haemophilus influenzae
S. pneumoniae [1] = experiment: Broth microdilution; assay type: cell-based, Streptococcus pneumoniae; conditions: for %Sus: NCCLS breakpoints (Amox/Clav 2/1 mcg/mL); for MIC90: Streptococcus pneumoniae
[2] = system: Other non-fermenting bacteria; experiment: Sensitivity of CAP pathogens with/without antibiotic pretreatment; assay type: cell-based
PRSP = experiment: Broth microdilution; assay type: cell-based, Streptococcus pneumoniae; conditions: for %Sus: NCCLS breakpoints (Amox/Clav 2/1 mcg/mL); for MIC90: Streptococcus pneumoniae, PRSP
S. pneumoniae [3] = experiment: E-test MIC, children with URTI, Brazil; assay type: cell-based, Streptococcus pneumoniae; conditions: for intermediate (I) / resistant (R) / susceptible (S): 137 isolates; for MIC90: Streptococcus pneumoniae
Other Haemophilus sp. = experiment: Sensitivity of CAP pathogens with/without antibiotic pretreatment; assay type: cell-based; conditions: after pretreatment, Abs. 11
S. pyogenes = experiment: as above; assay type: cell-based, Streptococcus pyogenes; conditions: Abs. 4
S. aureus = experiment: as above; assay type: cell-based, Staphylococcus aureus; conditions: after pretreatment, Abs. 4
Kl. pneumoniae = experiment: as above; assay type: cell-based, Klebsiella pneumoniae
[4] = system: Total pathogens in community acquired pneumonia; experiment: as above; assay type: cell-based; conditions: after pretreatment, Abs. 48
S. -pneumoniae = experiment: as above; assay type: cell-based, Streptococcus pneumoniae
H. influenzae = experiment: as above; assay type: cell-based, Haemophilus influenzae
[5] = system: pathogens in community acquired pneumonia of different severity; experiment: Sensitivity of CAP pathogens by Fine severity group; assay type: cell-based
[6] = system: Moraxella catarrhalis (MC); experiment: MIC; assay type: cell-based; conditions: 2497 isolates
E. coli = experiment: Sensitivity of CAP pathogens with/without antibiotic pretreatment; assay type: cell-based, Escherichia coli
Staph. coaq (−) = experiment: as above; assay type: cell-based, coagulase-negative Staphylococcus
ERSP = experiment: Broth microdilution; assay type: cell-based, Streptococcus pneumoniae; conditions: for %Sus: NCCLS breakpoints (Amox/Clav 2/1 mcg/mL); for MIC90: Streptococcus pneumoniae
[7] = system: Streptococcus pyogenes (SPY); experiment: MIC; assay type: cell-based; conditions: 2522 isolates
Enterococcus sp = experiment: Sensitivity of CAP pathogens with/without antibiotic pretreatment; assay type: cell-based
P. jirovecii = P. jirovecii colonisation; assay type: in vivo, human; conditions: none developed PcP in one year
S. pneumoniae [8] = assay type: cell-based, Streptococcus pneumoniae
S. pneumoniae [9] = experiment: Broth microdilution; assay type: cell-based, Streptococcus pneumoniae; conditions: 275 isolates
S. pneumoniae [10] = experiment: MIC of invasive strains, Saint George Hospital 2001–2004; assay type: cell-based, Streptococcus pneumoniae
Streptococcus pneumoniae [11] = experiment: BSAC agar dilution, lower respiratory isolates UK and Ireland; assay type: cell-based
[12] = system: ‘wild type’ Staphylococcus epidermidis skin isolates; experiment: NCCLS disk diffusion; assay type: cell-based; conditions: 52 isolates
Streptococcus pneumoniae [13] = experiment: Susceptibility testing; assay type: cell-based; conditions: 99 isolates tested
[14] = system: Streptococcus pneumoniae (SPN); experiment: MIC; assay type: cell-based; conditions: 8378 isolates
[15] = system: viridans group streptococci (VGS); experiment: MIC; assay type: cell-based
S. pneumoniae [16] = experiment: Susceptibility of bacteraemia isolates of children, Taiwan; assay type: cell-based, Streptococcus pneumoniae; conditions: 79 isolates
[17] = system: Haemophilus influenzae (HI); experiment: MIC; assay type: cell-based; conditions: 7489 isolates
F. necrophorum = experiment: E-test, 13 clinical isolates; assay type: cell-based, Fusobacterium necrophorum
S. pneumoniae [18] = experiment: PROTEKT Italy, NCCLS microdilution; assay type: cell-based, Streptococcus pneumoniae
S.pneumoniae = experiment: Italian survey of severe infections 2003, MIC; assay type: cell-based, Streptococcus pneumoniae
[19] = system: foreign body infection Staphylococcus epidermidis strains; experiment: NCCLS disk diffusion; assay type: cell-based; conditions: 86 strains
S. pneumoniae (SPN) = experiment: SENTRY Brazil, NCCLS broth microdilution; assay type: cell-based, Streptococcus pneumoniae
[20] = system: viridans group streptococci (VgS) and Streptococcus bovis; experiment: Broth microdilution and disk diffusion; assay type: cell-based; conditions: nine species
S. pneumoniae (Sp) = experiment: Broth microdilution, point prevalence study Spain; assay type: cell-based, Streptococcus pneumoniae; conditions: 360 isolates, February 2004; penicillin I+R

CC[C@H]1OC(=O)[C@H](C)[C@@H](O[C@H]2C[C@@](C)(OC)[C@@H](O)[C@H](C)O2)[C@H](C)[C@@H](O[C@@H]2O[C@H](C)C[C@H](N(C)C)[C@H]2O)[C@](C)(O)C[C@@H](C)CN(C)[C@H](C)[C@@H](O)[C@]1(C)O [azithromycin]
% of sensitive strains (Other Enterobacteriacae; after pretreatment, Abs. 5): 0.0%
% of sensitive strains (Other Enterobacteriacae; without pretreatment, Abs. 2): 0,0%
% of sensitive strains (P. aeruginosa; after pretreatment): 0.0%
% of sensitive strains (P. aeruginosa; without pretreatment): 0,0%
MIC (N.gonorrhoeae; strain 76mu6): 0.25 µg/mL (≈ 0.334 µM)
MIC (N.gonorrhoeae; strain 76mu10): 0.25 µg/mL (≈ 0.334 µM)
MIC90 (H.influenzae): 2 µg/mL (≈ 2.67 µM)
%Sus (H.influenzae; NCCLS): 99.1%
%Sus (S. pneumoniae [1]): 71.4%
MIC90 (S. pneumoniae [1]): > 32 µg/mL
% of sensitive strains ([2]; after pretreatment, Abs. 0): 0.0%
% of sensitive strains ([2]; without pretreatment, Abs. 1): 0,0%
%Sus (PRSP): 23.0%
MIC90 (PRSP): > 32 µg/mL
intermediate (I) (S. pneumoniae [3]): 1.5%
resistant (R) (S. pneumoniae [3]): 8%
susceptible (S) (S. pneumoniae [3]): 90.5%
MIC90 (S. pneumoniae [3]): 4 µg/mL (≈ 5.34 µM)
% of sensitive strains (Other Haemophilus sp.): 100.0%
% of sensitive strains (S. pyogenes; after pretreatment): 100.0%
% of sensitive strains (S. pyogenes; without pretreatment): 100,0%
% of sensitive strains (S. aureus): 75.0%
% of sensitive strains (Kl. pneumoniae; after pretreatment, Abs. 5): 0.0%
% of sensitive strains (Kl. pneumoniae; without pretreatment, Abs. 4): 0,0%
% of sensitive strains [4]: 66.7%
% of sensitive strains (S. -pneumoniae; after antibiotic pretreatment, Abs. 3): 100.0%
% of sensitive strains (S. -pneumoniae; without antibiotic pretreatment, Abs. 13): 100,0%
% of sensitive strains (H. influenzae; after pretreatment, Abs. 10): 100.0%
% of sensitive strains (H. influenzae; without pretreatment, Abs. 26): 100.0%
sensitivity, total strains ([5]; higher severity group (Fine scores >70)): 60.0%
sensitivity, total strains ([5]; lower severity group (Fine scores <70)): 73.6%
MIC90 [6]: 0.25 ig/ml
% of sensitive strains (E. coli; after pretreatment, Abs. 1): 0.0%
% of sensitive strains (E. coli; without pretreatment, Abs. 5): 0,0%
% of sensitive strains (Staph. coaq (−); after pretreatment, Abs. 2): 50.0%
% of sensitive strains (Staph. coaq (−); without pretreatment, Abs. 4): 75.0%
%Sus (ERSP): 0.3%
MIC90 (ERSP): > 32 µg/mL
MIC90 [7]: 0.5 ig/ml
% of sensitive strains (Enterococcus sp; after pretreatment, Abs. 0): 0.0%
% of sensitive strains (Enterococcus sp; without pretreatment, Abs. 1): 0,0%
patients receiving prophylaxis who were colonized (P. jirovecii): 17.2%

CC1(C)S[C@@H]2[C@H](NC(=O)Cc3ccccc3)C(=O)N2[C@H]1C(=O)O [penicillin]
MIC (N.gonorrhoeae; strain 76mu6): 16 µg/mL (≈ 47.8 µM)
MIC (N.gonorrhoeae; strain 76mu10): 16 µg/mL (≈ 47.8 µM)
MIC (N.gonorrhoeae; strain 92mu6): 0.5 µg/mL (≈ 1.5 µM)
MIC (N.gonorrhoeae; strain 92mu13): 0.5 µg/mL (≈ 1.5 µM)
MIC90 (H.influenzae): > 16 µg/mL
%Sus (S. pneumoniae [1]): 60.6%
MIC90 (S. pneumoniae [1]): 2 µg/mL (≈ 5.98 µM)
intermediate susceptible (S. pneumoniae [8]): 30%
Susceptibility (S. pneumoniae [9]): 83.6%
%Sus (PRSP): 0.0%
MIC90 (PRSP): 4 µg/mL (≈ 12 µM)
intermediate (I) (S. pneumoniae [3]): 23.4%
resistant (R) (S. pneumoniae [3]): 10.2%
susceptible (S) (S. pneumoniae [3]): 66.4%
MIC90 (S. pneumoniae [3]): 1.5 µg/mL (≈ 4.49 µM)
% S (S. pneumoniae [10]): 46%
%R (S. pneumoniae [10]): 54%
resistance (PEN-NS >0.06, TET-R >1, ERY-R >0.5, CIP-R >2 mg/L) (Streptococcus pneumoniae [11]; Ireland 1999–2000, N 66): 40.9%
resistance (same cut-offs) (Streptococcus pneumoniae [11]; Ireland 2000–2001, N 59): 42.4%
resistance (same cut-offs) (Streptococcus pneumoniae [11]; Ireland 2001–2002, N 68): 36.8%
resistance (same cut-offs) (Streptococcus pneumoniae [11]; Ireland 2002–2003, N 89): 24.7%
resistance (same cut-offs) (Streptococcus pneumoniae [11]; Ireland 2003–2004, N 76): 14.5%
resistance (same cut-offs) (Streptococcus pneumoniae [11]; UK 1999–2000, N 595): 7.4%
resistance (same cut-offs) (Streptococcus pneumoniae [11]; UK 2000–2001, N 608): 7.1%
resistance (same cut-offs) (Streptococcus pneumoniae [11]; UK 2001–2002, N 631): 4.6%
resistance (same cut-offs) (Streptococcus pneumoniae [11]; UK 2002–2003, N 683): 6.4%
resistance (same cut-offs) (Streptococcus pneumoniae [11]; UK 2003–2004, N 709): 5.9%
% resistant [12]: 46.2%
resistant isolates (Streptococcus pneumoniae [13]): 14.1%
MIC90 [14]: 1 ig/ml
MIC50 [15]: 0.06 µg/mL (≈ 0.179 µM)
MIC90 [15]: 0.5 µg/mL (≈ 1.5 µM)
MIC range of isolates with reduced susceptibility [15]: 0.25 to 4 µg/mL
isolates with reduced susceptibility ([15]; 107 strains): 18.7%
MIC90 [6]: 8 ig/ml
nonsusceptible isolates (MIC > 0.1 μg/mL) (S. pneumoniae [16]): 82%
%Sus (ERSP): 18.6%
MIC90 (ERSP): 4 µg/mL (≈ 12 µM)
MIC90 [17]: 8 ig/ml
MIC90 [7]: 0.03 ig/ml
MIC range (F. necrophorum): 0.004 to 256 µg/mL
MIC50 (F. necrophorum; Fusobacterium necrophorum): 0.016 µg/mL (≈ 0.0478 µM)
MIC90 (F. necrophorum; Fusobacterium necrophorum): > 32 µg/mL
total resistance (S. pneumoniae [18]; year 1: 2002): 23.7%
total resistance (S. pneumoniae [18]; year 2: 2003): 23.4%
resistance (S.pneumoniae): 20.0%
% resistant [19]: More than 30%
% R (> 2 mg/L) to PEN (S. pneumoniae (SPN); 1998): 3%
% S (S. pneumoniae (SPN); 1998): 84%
% R (> 2 mg/L) to PEN (S. pneumoniae (SPN); 1999): 6%
% S (S. pneumoniae (SPN); 1999): 83%
% R (> 2 mg/L) to PEN (S. pneumoniae (SPN); 2000): 5%
% S (S. pneumoniae (SPN); 2000): 75%
% R (> 2 mg/L) to PEN (S. pneumoniae (SPN); 2001): 8%
% S (S. pneumoniae (SPN); 2001): 82%
% R (> 2 mg/L) to PEN (S. pneumoniae (SPN); 2002): 8%
% S (S. pneumoniae (SPN); 2002): 78%
% R (> 2 mg/L) to PEN (S. pneumoniae (SPN); 2003): 10%
% S (S. pneumoniae (SPN); 2003): 72%
% S, range between species [20]: 65.5–98.1%
resistance (S. pneumoniae (Sp)): 42%
